Source: PubChem BioAssay AID2305 (GlaxoSmithKline (GSK), 2010)

These compounds were tested on P. falciparum 3D7 growth, pLDH absorbance (assay: blood-stage malaria parasite growth potency – strain 3D7, dose response (AID 2305)).

Compound	IC50
O=C(NCc1cccc(F)c1)Nc1ccc(-c2ccc(-c3nc4ccc(C(F)(F)F)cc4[nH]3)cc2)cc1	770 nM
O=C(Nc1cccc(Cl)c1Cl)NC1CCN(Cc2cccc(O)c2)CC1	800 nM
COc1ccc(CN2CCCN(Cc3cccc(C(=O)Nc4ccc(C(C)(C)C)cc4)c3)CC2)cc1	890 nM
O=C(NCCCCCN1CCC(c2c[nH]c3ccccc23)CC1)c1ccc(-c2ccccc2)nc1	1020 nM
Cc1cc(NCCC(=O)Nc2ccccc2)nc(NCCc2ccc(F)cc2)n1	1130 nM
O=C(NCCN1CCCC1)c1cccc(-c2ccc(-c3nc4ccccc4[nH]3)cc2)c1	920 nM
CCOc1ccc2ccccc2c1CNCCCCCCNCc1c(OCC)ccc2ccccc12	580 nM
Nc1nc2ccc(CN(C=O)c3ccc(C(=O)N[C@@H](CCC(=O)O)C(=O)O)cc3)cc2c(=O)[nH]1	180 nM
O=C(Nc1cccc(CN2CCCN(CC3CC3)CC2)c1)c1ccc(-c2ccccc2)cc1	930 nM
Clc1ccc(-c2[nH]c3ccccc3c2CN2CCC(N3CCCCC3)CC2)cc1	1060 nM
N#CC(c1ccc(F)cc1)c1ccc2c(C(F)(F)F)cc(C(F)(F)F)nc2n1 (configuration not stated)	730 nM
Cc1ccc2c(C3=CCN(CCCCC4(C)C(=O)Nc5ccccc54)CC3)c(C)[nH]c2c1 (configuration not stated)	370 nM
COc1ccccc1CNc1nc(Nc2ccccc2C)nc2ccccc12	810 nM
CN(C)c1ccc(-c2ccc(C(=O)NC3CCN(Cc4cccc(C(F)(F)F)c4)CC3)s2)cc1	990 nM
Cc1ccc(C2(C)CC(C)(C)N(C(=O)COc3ccc4ccccc4c3)c3ccccc32)cc1 (configuration not stated)	110 nM
CCCCCNc1ccnc2cc(Cl)ccc12	510 nM
O=C(/C=C/c1ccc(Cl)c(Cl)c1)NCCCCCCN1CCCN(C(=O)Nc2cc(Cl)cc(Cl)c2)CC1	780 nM
NC(=O)c1cccc(C(=O)Nc2cccc(-c3ccc(-c4nc5ccccc5[nH]4)s3)c2)c1	350 nM
COc1cc2c(cc1N1CCN(C)CC1)N(C(=O)Nc1ccc(-c3ccncc3)c(Cl)c1Cl)CC2	610 nM
c1cc(CN2CCCCC2)cc(-c2csc(-c3nc4ccccc4[nH]3)c2)c1	850 nM
COc1ccc2nccc(NC(=O)N3CCC(NCCOc4cc(F)cc(F)c4)CC3)c2n1	770 nM
Cc1cccc(CNc2nc(C)cc(NCCC(=O)Nc3ccccc3)n2)c1	1050 nM
CCOc1ccc(-c2nonc2NC(=O)c2ccccc2F)cc1OCC	840 nM
O=C(Nc1ccc(C(F)(F)F)cc1)c1ccc(S(=O)(=O)NC2CCN(CC3CCCCC3)CC2)cc1	730 nM
CCOc1cc(Cc2cnc(N)nc2N)cc(Br)c1OC	1440 nM

Compound	IC50
Cc1ccccc1C1CCN(C2CCC(NC(=O)/C=C/c3cccc(Cl)c3F)CC2)CC1 (configuration not stated)	1140 nM
CC(Cc1ccc(NS(=O)(=O)c2ccc(CC(C)NCCc3cccc(Cl)c3)cc2)cc1)NCCc1cccc(Cl)c1 (configuration not stated)	780 nM
CCN(CCNS(C)(=O)=O)c1ccc(N)c(C)c1	880 nM
CCC(O)c1ccc(Br)cc1NC(=O)c1cccc(Cl)c1 (configuration not stated)	1020 nM
FC(F)(F)COc1ccc(CNCCCCCCNCc2ccc(OCC(F)(F)F)c3ccccc23)c2ccccc12	400 nM
O=C(N[C@@H](CC1CCCCC1)C(=O)NCCN1CCCC1)c1ccc(O)c(-c2cccc(C(F)(F)F)c2)c1	760 nM
CC(C)CNCc1ccc(-c2cccc(CN(C(=O)NCCc3ccccc3)C3CCN(Cc4ccccc4)CC3)c2)cc1	580 nM
CN1CCN(CC(=O)Nc2ccc(-c3csc(-c4nc5ccccc5[nH]4)c3)cc2)CC1	1560 nM
COc1ccc(Nc2ncc3c(-c4cccc(NC(=O)c5ccc(N)cc5)c4)c[nH]c3n2)cc1OC	970 nM
N#Cc1ccc2c(c1)CCN(CCC1CCC(NC(=O)c3cc4ccc(Cl)cc4[nH]3)CC1)C2 (configuration not stated)	700 nM
O=S(=O)(NCCN1CCCC1)c1ccc(-c2ccc(CNC3Cc4ccccc4C3)cc2)s1	590 nM
CN(C)Cc1ccc2cc(NC(=O)c3ccc(-c4ccc(Cl)cc4)cc3)ccc2n1	850 nM
COc1ccc(CNCc2ccsc2)cc1-c1ccc(S(=O)(=O)NCCN2CCCC2)c(C)c1	900 nM
CC(C)(C)c1ccc(CN2CCC(NC(=O)c3ccc(-c4cccc(Cl)c4)s3)CC2)cc1	1070 nM
O=C(NCc1cccc(OC(F)(F)F)c1)c1cnc2c(c1)nc(-c1cnc(-c3ccccc3)[nH]1)n2CCc1cnc[nH]1	680 nM
O=S1(=O)NC2(CCN(CCc3ccc(Cl)cc3)CC2)Nc2cc(F)cc(F)c21	1460 nM
O=C(NCCCCN1CCC(c2cccc3ccccc23)CC1)c1ccc(NC(=O)c2ccc(Cl)cc2)cc1	780 nM
CN1CCN(CCCNCc2ccccc2-c2cccc(CNCc3ccc4c(c3)OCO4)c2)CC1	790 nM
CCN(CC)CCN(Cc1ccc(-c2ccc(C(F)(F)F)cc2)cc1)C(=O)Cn1c(CCc2ccc(F)c(F)c2F)nc(=O)c2cccnc21	1130 nM
COc1cc2c(cc1OC)-c1cc(=Nc3c(C)cc(C)cc3C)n(C)c(=O)n1CC2	1110 nM
COc1c(C2CCN(CCCCNC(=O)c3ccc(-c4ccc(C(=O)C(F)(F)F)cc4)cc3)CC2)ccc2c1CCCC2	1100 nM
Cc1cccc2[nH]c(-c3cccc(-c4ccc(NC(=O)Cc5ccon5)cc4)c3)nc12	1090 nM
CC(C)c1sc(N2CCN(C)CC2)nc1C(=O)Nc1ccc(F)cc1C(F)(F)F	190 nM
Oc1cccc(-c2nc3ccc(C4=N[C@H]5CCCC[C@H]5N4)cc3[nH]2)c1	590 nM
Fc1ccc2nc(-c3ccc(-c4ccc(CN5CCC(CCN6CCCCC6)CC5)cc4)cc3)[nH]c2c1	130 nM

Compound	IC50
COc1ccc(CCN(C)CCc2ccc(NC(=O)c3cccc4c(=O)c5ccccc5sc34)cc2)cc1	860 nM
O=C(/C=C/c1ccc(Cl)c(Cl)c1)NCCCCCN1CCCN(C(=O)Nc2ccc(Cl)c(C(F)(F)F)c2)CC1	730 nM
Cc1nnsc1C(=O)Nc1cccc(-c2ccc(-c3nc4ccccc4[nH]3)s2)c1	880 nM
Nc1nc(N)c2c(Oc3ccc(Cl)c(Cl)c3)cccc2n1	870 nM
O=C(Nc1cccc(CN2CCCN(Cc3cccc(O)c3)CC2)c1)c1ccc(-c2ccccc2)cc1	640 nM
CN(C)CC(=O)Nc1ccc(Nc2nccc(NCC(O)c3ccccc3)n2)cc1 (configuration not stated)	970 nM
CC(C)(C)n1nnnc1C(c1cccnc1)N(Cc1ccccc1)Cc1ccc(Cl)cc1 (configuration not stated)	740 nM
Nc1nc(N)c2c(Sc3ccccc3)cccc2n1	650 nM
COc1ccc(-c2ccc(NC(=O)c3cccc(C#N)c3)cc2)cc1CN1CCN(C)CC1	710 nM
Cc1[nH]c2ccccc2c1C1=CCN(CCCCCC23CCCc4cccc(c42)NC3=O)CC1 (configuration not stated)	250 nM
CCN(CC)CC#Cc1ccc2[nH]c(C)c(Cl)c(=O)c2c1	700 nM
CCCCCCCCNCC(O)c1cc(-c2ccc(Cl)cc2)nc2cc(C)ccc12 (configuration not stated)	80 nM
C=CCn1c(SCc2c(C)noc2C)nc2scc(-c3cccs3)c2c1=O	1100 nM
CC1=C(C(=O)OCCOCc2ccccc2)C(c2ccccc2C(F)(F)F)C(C(=O)OCCOCc2ccccc2)=C(C)N1	530 nM
CC[C@H]1CN2CC[C@@H]1C[C@H]2[C@H](O)c1cc(-c2ccc(F)cc2)nc2ccc(O)cc12	140 nM
Cc1nc2nc(N)nc(N)c2c(C)c1Cc1cccc(C#N)c1	920 nM
c1cc(OCCN2CCCC2)ccc1CNC1CCN(CC2CCCCC2)CC1	840 nM
CN(C)c1nc2cc(-n3cnc4cc(-c5ccc(Cl)cc5)sc4c3=O)ccc2n1CCCN1CCCCC1	840 nM
CC1CCC2(CC1)N=C(N)N=C(N)N2OCCCCCCCCO (configuration not stated)	150 nM
CN1CCC(C(=O)Nc2ccc(-c3ccc(-c4nc5ccccc5[nH]4)cc3)cc2)CC1	980 nM
CN1CCC(C(=O)Nc2cccc(-c3ccc(-c4nc5ccc(C(F)(F)F)cc5[nH]4)s3)c2)CC1	720 nM
CCOc1c(Cl)cc(Cl)cc1CNCCCNc1nc2ccccc2[nH]1	830 nM
O=C(Nc1ccc(C(F)(F)F)cc1)c1ccc(S(=O)(=O)NC2CCCN(CC3CCCCC3)C2)cc1 (configuration not stated)	720 nM
CCn1c(-c2nonc2N)nc2c(-c3cccc(Cl)c3)ncc(OCCCNCc3cnc(C)nc3N)c21	1010 nM
O=C(NCc1ccccc1)Nc1ccc(-c2cccc(-c3nc4ccc(C(F)(F)F)cc4[nH]3)c2)cc1	660 nM

Compound	IC50
Cc1cccc2[nH]c(-c3ccc(-c4ccc(CNCCCN5CCCC5=O)cc4)cc3)nc12	630 nM
C/C=C/C=C/C1=NCCc2cc(OCCC)ccc21	910 nM
COc1ccc(CN(C)CCOc2ccc(NC(=O)c3cccc4c(=O)c5cc(SC)ccc5[nH]c34)cc2)cc1OC	880 nM
CCN(CC)S(=O)(=O)c1ccc(Cl)c(C(=O)Nc2ccc3nc(C)sc3c2)c1	800 nM
CCOC(=O)NC1=NC(C)(C)N(OCCCOc2cc(Cl)c(Cl)cc2Cl)C(NC(=O)OCC)=N1	30 nM
COc1ccc(NC(=O)Nc2nc3ccccc3s2)cc1N1CCN(C)CC1	700 nM
Fc1cccc(COc2ccc(Nc3ncnc4sc(C#CCNC5CCCC5)cc34)cc2Cl)c1	780 nM
CCC1=C(C[C@H]2NCCc3cc(OC)c(OC)cc32)C[C@H]2c3cc(OC)c(OC)cc3CCN2C1	310 nM
FC(F)(F)c1cccc(CNCCCCCNCc2ccc(Cl)cc2)c1	1030 nM
O=C(NC1CCC(N2CCN(c3cccc4[nH]ccc34)CC2)CC1)c1cc2cccnc2[nH]1 (configuration not stated)	490 nM
O=C(/C=C/c1ccc(Cl)c(Cl)c1)NCCCCCCN1CCN(C(=O)Nc2cccc(Cl)c2)CC1	980 nM
COc1ccc(-c2cccc(NC(=O)c3cccc(C#N)c3)c2)cc1CNC(C)C	690 nM
NC1=NC(=O)C(=Cc2cn(-c3ccccc3)nc2-c2cccc(S(=O)(=O)N3CCCC3)c2)S1	1140 nM
CCC(NC(=O)c1ccccc1NC(=O)c1ccc(C)cc1)C(=O)OC (configuration not stated)	760 nM
CCN(CCCN1CCCCC1)c1cc(C)nc(Nc2ccc(C(C)C)cc2)n1	540 nM
O=C(Nc1cc(Cl)cc(Cl)c1)c1cc(Cl)c(=O)n(Cc2ccc(Cl)cc2)c1	860 nM
Cc1cc(NC(=O)c2sc3ccccc3c2O)no1	810 nM
O=C(NC1CCC(CN2CCC(c3c[nH]c4ccccc34)CC2)CC1)c1cc(-c2ccccc2)c(C(F)(F)F)s1 (configuration not stated)	170 nM
CN(C)[C@@H]1C(=O)C(C(N)=O)=C(O)[C@@]2(O)C(=O)C3=C(O)c4c(O)ccc(C#Cc5ccccn5)c4C[C@H]3C[C@@H]12	760 nM
CCN(CC)CCN(Cc1ccc(-c2ccc(C(F)(F)F)cc2)cc1)C(=O)Cn1cc(Cc2cnn(C)c2)c(=O)nc1/C=C/c1ccc(F)cc1	1060 nM
N#Cc1cccc(Nc2nccc(NCC(O)c3ccccc3C(F)(F)F)n2)c1 (configuration not stated)	830 nM
Oc1cc(Nc2ccnc3cc(-c4ccc(CN5CCCCC5)o4)ccc23)c(Cl)cc1F	120 nM
